In ChEMBL document CHEMBL6096646, “Sulfonamide-derivatized galactosides selectively target an unexplored binding site in the galectin-9N-terminal domain” (Bioorg Med Chem, 2024):

Molecular target: Galectin-7 (Homo sapiens, UniProt P47929)
Assay: Binding affinity to human Galectin-7 assessed as dissociation constant by competitive fluorescence polarization assay

Galectin-7, sequence (P47929 whole entry): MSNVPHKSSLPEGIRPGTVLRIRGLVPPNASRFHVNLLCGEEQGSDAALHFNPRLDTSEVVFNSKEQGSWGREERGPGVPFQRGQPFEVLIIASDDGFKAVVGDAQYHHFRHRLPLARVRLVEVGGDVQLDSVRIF

| Kd [µM] | Compound |
| --- | --- |
| > 600 | O=S(=O)(Nc1ccccc1-c1cn([C@@H]2[C@@H](O)[C@@H](Sc3ccc(Cl)c(Cl)c3)O[C@H](CO)[C@@H]2O)nn1)c1cc(C(F)(F)F)cc(C(F)(F)F)c1 |
| > 1000 | CO[C@H]1O[C@H](CO)[C@H](O)[C@H](n2cc(-c3ccccc3NS(=O)(=O)c3cc(C(F)(F)F)cc(C(F)(F)F)c3)nn2)[C@H]1O |
